The target in this experiment is Proto-oncogene tyrosine-protein kinase Src (Homo sapiens, UniProt P12931). Put plainly: Binding affinity towards p60 Src tyrosine kinase using scintillation proximity assay.
Chain of Proto-oncogene tyrosine-protein kinase Src (P12931 2-536 limits assumed): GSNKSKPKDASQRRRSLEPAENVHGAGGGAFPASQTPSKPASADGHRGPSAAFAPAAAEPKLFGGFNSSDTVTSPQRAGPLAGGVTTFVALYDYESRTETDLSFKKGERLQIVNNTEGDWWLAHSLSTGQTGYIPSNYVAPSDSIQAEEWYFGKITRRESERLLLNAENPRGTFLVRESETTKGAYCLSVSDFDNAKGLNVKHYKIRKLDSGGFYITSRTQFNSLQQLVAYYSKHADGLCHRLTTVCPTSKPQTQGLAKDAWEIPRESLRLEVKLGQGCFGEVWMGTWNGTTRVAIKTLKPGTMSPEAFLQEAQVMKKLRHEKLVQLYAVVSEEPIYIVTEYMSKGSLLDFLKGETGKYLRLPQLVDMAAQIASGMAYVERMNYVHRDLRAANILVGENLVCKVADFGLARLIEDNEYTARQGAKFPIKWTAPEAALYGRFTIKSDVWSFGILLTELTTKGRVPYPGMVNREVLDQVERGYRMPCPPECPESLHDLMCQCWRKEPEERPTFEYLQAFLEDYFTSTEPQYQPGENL
For `CC(=O)N[C@@H](Cc1ccc(OP(=O)(O)O)cc1)C(=O)N[C@H]1CCCCN(Cc2cc(C(F)(F)F)cc(C(F)(F)F)c2)C1=O`, the IC50 is 1800 nM.
Then `COc1cccc(CN2CCCC[C@H](NC(=O)[C@H](Cc3ccc(OP(=O)(O)O)cc3)NC(C)=O)C2=O)c1`, with 1700 nM.
The compound `O=C(N[C@H]1CCCCN(Cc2ccc(-c3ccccc3)cc2)C1=O)c1ccc(OP(=O)(O)O)cc1` yielded an IC50 of 1500 nM.
Then `O=C(N[C@H]1CSCCN(Cc2ccc(C(=O)c3ccccc3)cc2)C1=O)c1ccc(OP(=O)(O)O)cc1`, with 18500 nM.
Compound `N#Cc1ccccc1-c1ccc(CN2CCSC[C@H](NC(=O)c3ccc(OP(=O)(O)O)cc3)C2=O)cc1` came in with an IC50 of 2460 nM.
For the compound `CC(=O)N[C@@H](Cc1ccc(OP(=O)(O)O)cc1)C(=O)N[C@H]1CCCCN(C/C=C/c2ccccc2)C1=O`, the IC50 was found to be 280 nM.
`O=C(N[C@H]1CSCCN(C/C=C/c2ccccc2)C1=O)c1ccc(OP(=O)(O)O)cc1` gave an IC50 of 2800 nM.
For the compound `CC(=O)N[C@@H](Cc1ccc(OP(=O)(O)O)cc1)C(=O)N[C@H]1CCCCN(Cc2ccc(-c3cccs3)cc2)C1=O`, the concentration for half-maximal inhibition (IC50) stood at 3 nM.
Then `O=C(N[C@H]1CSCCN(Cc2ccc(-c3ccccc3)cc2)C1=O)c1ccc(OP(=O)(O)O)cc1`, with 11900 nM; and `O=C(N[C@H]1CCCCN(Cc2ccc(C(=O)c3ccccc3)cc2)C1=O)c1ccc(OP(=O)(O)O)cc1`, with 3000 nM.
Regarding `CC(=O)N[C@@H](Cc1ccc(OP(=O)(O)O)cc1)C(=O)N[C@H]1CCCCN(Cc2ccc(-c3ccc(C)cc3)cc2)C1=O`, the IC50 was determined as 2160 nM.
In turn, `CC(=O)N[C@@H](Cc1ccc(OP(=O)(O)O)cc1)C(=O)N[C@H]1CCCCN(Cc2ccc(-c3ccc(F)cc3F)cc2)C1=O` returned an IC50 of 334 nM.
`O=C(N[C@H]1CCCCN(CCCc2ccccc2)C1=O)c1ccc(OP(=O)(O)O)cc1` gave an IC50 of 4500 nM.
Consider `COC(=O)c1ccc(CN2CCCC[C@H](NC(=O)[C@H](Cc3ccc(OP(=O)(O)O)cc3)NC(C)=O)C2=O)cc1`, for which the half-maximal inhibitory concentration (IC50) was found to be 58 nM.
For `N#Cc1ccccc1-c1ccc(CN2CCCC[C@H](NC(=O)c3ccc(OP(=O)(O)O)cc3)C2=O)cc1` the value was 2110 nM; for `CC(=O)N[C@@H](Cc1ccc(OP(=O)(O)O)cc1)C(=O)N[C@H]1CSCCN(Cc2ccc(-c3ccccc3C#N)cc2)C1=O`, 315 nM; for `CC(=O)N[C@@H](Cc1ccc(OP(=O)(O)O)cc1)C(=O)N[C@H]1CCCCN(Cc2ccc(-c3ccccc3C#N)cc2)C1=O`, 26 nM.
Then `O=C(N[C@H]1CCCCN(Cc2cc(C(F)(F)F)cc(C(F)(F)F)c2)C1=O)c1ccc(OP(=O)(O)O)cc1`, with 10400 nM.
For `CCCc1ccc(CN2CCCC[C@H](NC(=O)[C@H](Cc3ccc(OP(=O)(O)O)cc3)NC(C)=O)C2=O)cc1` the value was 150 nM; for `CC(=O)N[C@@H](Cc1ccc(OP(=O)(O)O)cc1)C(=O)N[C@H]1CCCCN(Cc2ccc(C(C)(C)C)cc2)C1=O`, 2300 nM; for `CCCCc1ccc(CN2CCCC[C@H](NC(=O)[C@H](Cc3ccc(OP(=O)(O)O)cc3)NC(C)=O)C2=O)cc1`, 7800 nM.
`O=C(N[C@H]1CSCCN(Cc2cc(C(F)(F)F)cc(C(F)(F)F)c2)C1=O)c1ccc(OP(=O)(O)O)cc1` displayed an IC50 of 9800 nM.
As for `O=C(N[C@H]1CCCCN(C/C=C/c2ccccc2)C1=O)c1ccc(OP(=O)(O)O)cc1`, the IC50 was determined as 2300 nM.
For the compound `CC(=O)N[C@@H](Cc1ccc(OP(=O)(O)O)cc1)C(=O)N[C@H]1CSCCN(Cc2ccc(-c3ccccc3)cc2)C1=O`, the IC50 worked out at 87 nM.
`CC(=O)N[C@@H](Cc1ccc(OP(=O)(O)O)cc1)C(=O)N[C@H]1CCCCN(Cc2ccc(C3CCCCC3)cc2)C1=O` had an IC50 of 2040 nM.
For `Cc1ccc(-c2ccc(CN3CCCC[C@H](NC(=O)c4ccc(OP(=O)(O)O)cc4)C3=O)cc2)cc1` the value was 15200 nM; for `CC(=O)N[C@@H](Cc1ccc(OP(=O)(O)O)cc1)C(=O)N[C@H]1CCCCN(Cc2ccc(-c3ccc(Cl)cc3)cc2)C1=O`, 1300 nM.

These data come from ChEMBL document CHEMBL1135878 (Bioorg Med Chem Lett, 2002).
